Test: gradient 5% acetonitrile 3 min, to 50% in 2 min, to 85% in 15 min, held 3 min, 100 µL/min
Conditions: column: Zorbax Extend-C18 2.1 x 50 mm; eluents: water / acetonitrile, 0.1% formic acid
Method in brief: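 Data were gathered over 3 months by HPLC coupled to a quadrupole time-of-flight mass spectrometer, operated in positive and negative ionization mode. Mixtures of ~100 pure standards ran on a Zorbax Extend-C18 column (2.1 × 50 mm, 1.8 μm) at 100 μL/min, with water and acetonitrile each containing 0.1% formic acid and dead and dwell volumes of 40 μL and 900 μL. Retention time was read from adduct peaks picked by computer and checked manually.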

| RP-LC retention time | Structure (SMILES) |
| --- | --- |
| 727 s | O=C(NCc1cccs1)c1cc(=O)c(OCc2ccccc2)co1 |
| 757 s | Cc1ccc(C)c(S(=O)(=O)N2CCC3(CC2)NCCN=C3NCc2ccccc2F)c1 |
| 675 s | Cc1c(C(=O)Nc2ccc(CC(=O)NC3CC3)cc2)cnn1-c1ccccc1 |
| 751 s | CCN(CC)S(=O)(=O)N1CCC(C(=O)NCCc2ccc(OC)c(OC)c2)CC1 |
| 675 s | CCN1CCOc2ccc(NC(=O)c3ccc4c(c3)OCO4)cc2C1=O |
| 695 s | Cn1cc(CN2CCCC(COc3ccccc3C(=O)N3CCCC3)C2)c2ccccc21 (centres undefined) |
| 842 s | COc1ccc(NC(=O)c2noc3c2CCCC3)cc1OC |
| 601 s | CCN(CC)C(=O)c1cnc2nc(C)ccc2c1Nc1ccc2c(c1)OCCO2 |
| 734 s | Clc1ccc(-c2ccc(CNCc3ccccn3)o2)c(Cl)c1 |
| 874 s | COc1cccc(CNC(=O)C2CCCN(S(=O)(=O)c3cc(-c4noc(C)n4)cs3)C2)c1 (centres undefined) |
| 1090 s | COc1ccc(NC(=O)N2CC(Oc3ccc(-c4nc(-c5ccccc5)no4)cc3)C2)cc1 |
| 950 s | COc1cc(Cl)ccc1C(=O)N1CCN(c2ccc(-c3nc(C)c(C)s3)cn2)CC1 |
| 1130 s | COc1ccc(CN2C=C(C(=O)OCc3cc(=O)n4ccccc4n3)C(C)=NS2(=O)=O)cc1 |
| 720 s | COc1ccc(NC(=O)NC2CCN(c3ccc(C)cc3)C2=O)cc1OC (centres undefined) |
| 996 s | COc1ccc(-c2ncc3c(n2)CCN(C(=O)Nc2ccc(C)c(F)c2)C3)cc1 |
| 735 s | O=C1CCCc2cc(S(=O)(=O)N3CCC(C(=O)NCCc4ccccc4)CC3)ccc2N1 |
| 1200 s | Cc1nc2cc(-c3noc(-c4ccc(F)cc4)n3)ccc2n(C(C)C)c1=O |
| 719 s | Cc1ccc(CN2C[C@@H]3C(=O)N(CCc4ccccc4)C(=O)[C@@H]3C2)o1 |
| 648 s | CC(C)n1c(N2CCN(C(=O)CCc3nc4ccccc4[nH]3)CC2)cc(=O)n(C(C)C)c1=O |
| 627 s | CC1CN2C=NC(N3CCN(S(=O)(=O)Cc4cccc(Cl)c4)CC3)=CC2=N1 (centres undefined) |
| 997 s | COc1ccc(Cl)cc1NC(=O)Cn1c2c(c(=O)n(C3CCCCC3)c1=O)CCC2 |
| 673 s | O=C(c1ccc(F)c(Cl)c1)N1CCN=C1N1CCCCC1 |
| 802 s | CCNC(=O)Cn1c(=O)c2cnc(-c3ccccc3)nc2n(CC)c1=O |
| 954 s | Brc1cncc(-c2nc(-c3cccc(-c4ccn[nH]4)c3)no2)c1 |
| 737 s | O=C(CC1CCN(C(=O)NCc2ccccc2)CC1)NCc1ccc(F)cc1 |
| 778 s | CCCNC(=O)CSc1cc(NCc2ccc(Cl)cc2)ncn1 |
| 637 s | COc1ccc(C)cc1Nc1nc(C(=O)Nc2cccnc2)cs1 |
| 1240 s | Cc1ccc(C)c(-c2coc(-c3ccc(NC(=O)NCCc4ccccc4)cc3)n2)c1 |
| 721 s | Cc1ccc2c(c1)c1nc3ccccc3nc1n2CC(=O)O |

Second part, the compound before the results:

| Structure (SMILES) | RP-LC retention time |
| --- | --- |
| Cn1ccnc1C(=O)N1CCCCCCNC(=O)[C@@H]2CCCC[C@@H]21 | 627 s |
| CCCC(=O)NC1CCN(c2ccc(C)c(C)c2)C1=O (centres undefined) | 736 s |
| CCc1ccc(C(=O)Nc2cc3c(cc2S(=O)(=O)C(C)C)n(C)c(=O)n3C)cc1 | 747 s |
| Cc1ccc(C)c(CNC(=O)Cc2csc3nc(-c4ccc(C)c(C)c4)cn23)c1 | 930 s |
| CCCn1c(=O)sc2cc(S(=O)(=O)N3CCC(C(=O)NCc4ccco4)CC3)ccc21 | 848 s |
| Cc1noc(C)c1CN1CCCCC1c1nc(-c2ccncc2)no1 (centres undefined) | 649 s |
| CCOc1ccc(CNC(=O)C2CCN(S(=O)(=O)c3cn(CC)cn3)CC2)cc1 | 696 s |
| CN(CCCNC(=O)C1CCN(c2nnc3ccc(Cl)cn23)CC1)c1ccccc1 | 606 s |
| CCc1nc2cc(-c3noc(COc4ccccc4)n3)ccc2o1 | 1060 s |
| O=c1n(Cc2cccc(Cl)c2)nc2c(S(=O)(=O)N3CCc4ccccc4C3)cccn12 | 1010 s |
| CN1CCCc2cc(C(CNC(=O)C(=O)Nc3ccc4c(c3)OCO4)N3CCCCC3)ccc21 (centres undefined) | 718 s |
| Brc1cn2c(Nc3ccc4c(c3)OCCO4)c(-c3ccccc3)nc2cn1 | 916 s |
| Cc1cnc(CCNS(=O)(=O)c2ccc(C#N)cc2)n1C1CC1 | 960 s |
| CCOC(=O)c1cnc(N2CCN(c3ccc(F)cc3)CC2)c2ccccc12 | 1270 s |
| CCn1cc(-c2nc(CC(=O)NCc3cccc(Cl)c3)cs2)c2cccnc21 | 903 s |
| O=S(=O)(c1cc(-c2ccno2)cs1)N1CCN(c2ncccn2)CC1 | 843 s |
| O=C(Cc1csc(NC(=O)c2ccco2)n1)Nc1nc2ccc([N+](=O)[O-])cc2s1 | 797 s |
| Cc1cc(C)cc(C(=O)NC2CCN(c3ccccc3)C2=O)c1 (centres undefined) | 862 s |
| CC1CCN(c2ncc3c(n2)CCC(C(=O)NCCc2cccnc2)C3)CC1 (centres undefined) | 598 s |
| CCN1CCN(C2CCN(C(=O)c3cccc(Br)c3)CC2)C1=O | 720 s |

| Structure (SMILES) | RP-LC retention time |
| --- | --- |
| CCOC(=O)CNC(=O)N1CCc2cc(-c3ccc(C(=O)N4CCOCC4)cc3)ccc21 | 723 s |
| CC(C)CC(=O)N1CCc2c(c(C(=O)NCc3ccc4c(c3)OCO4)nn2C)C1 | 745 s |
| Nc1ncnc(N2CCc3ccccc32)c1[N+](=O)[O-] | 697 s |
| O=S(=O)(c1cccs1)N1CCN(c2ccc(Nc3cccnc3)nn2)CC1 | 548 s |
| CCNC(=O)C1CCCN1C(=O)Nc1ccccc1 (centres undefined) | 619 s |
| O=C(NC1(c2nc(-c3ccccc3)no2)CCCCC1)c1cccc(Cl)c1 | 1230 s |
| COc1ccc(CNC(=O)C2CCCN(c3ccc(=O)n(-c4cccc(Cl)c4)n3)C2)cc1OC (centres undefined) | 798 s |
| CCCc1ccc(S(=O)(=O)N2CCC(n3c(-c4ccco4)nc4cccnc43)C2)cc1 (centres undefined) | 1010 s |
| Cc1nnc(-c2ccc3ccn(CC(=O)Nc4ccccc4)c3c2)o1 | 778 s |
| N#Cc1ccccc1NC(=O)c1ccc(N2C(=O)CCC2=O)cc1 | 639 s |
| Cc1noc(-c2cccc(OC3CN(S(=O)(=O)c4cn(C)cn4)C3)c2)n1 | 746 s |
| COc1ccc(CCC(=O)Nc2cc(-c3cccnc3)no2)cc1 | 756 s |
| CN1C(=O)c2cccn2CC1C(=O)N1CCCCC1 (centres undefined) | 614 s |
| Cc1cnc(-c2cc(N3CCN(C(=O)CCS(C)(=O)=O)CC3)ncc2Cl)c(C)c1 | 728 s |
| CN1CCC(N(C)C(=O)CN2C(=O)C(Oc3ccc(F)cc3)C23CCCCC3)CC1 (centres undefined) | 680 s |
| O=S(=O)(c1cccc2cccnc12)N1CCCn2nc(-c3ccncc3)cc2C1 | 610 s |
| Cc1nc(-c2csc(S(=O)(=O)N3CCC(C(=O)Nc4ccc(Cl)cc4F)CC3)c2)no1 | 990 s |
| CCN1C(=O)c2ccccc2Oc2ccc(C(=O)NCCc3ccccc3)cc21 | 845 s |
| CCc1ccc(CNC(=O)C2=C3CCCN3c3ccc(F)cc3S2(=O)=O)cc1 | 996 s |
| c1ccc(-c2noc(COC3CCCN(C4CCOCC4)C3)n2)cc1 (centres undefined) | 628 s |

| Structure (SMILES) | RP-LC retention time |
| --- | --- |
| Cc1cc(NC(=O)Cn2c(-c3ccc(F)cc3)ncc(C#N)c2=O)ccc1Br | 1080 s |
| CCc1ccc(CNC(=O)Cn2c(C)nc3onc(C)c3c2=O)cc1 | 821 s |
| C/C=C(\CCC1NCCc2c1[nH]c1ccccc21)[Si](C)(C)C (centres undefined) | 815 s |
| Cc1ccc(CNC(=O)C2(C)Cn3cnc(C(=O)NCc4cccc(C)c4)c3C(=O)N2C2CC2)cc1 (centres undefined) | 813 s |
| CCOC(=O)c1nc(Nc2ccc(C(=O)OCC(C)C)cc2)c2ccccc2n1 | 1090 s |
| Cc1cccn2cc(-c3cccc(S(=O)(=O)N4CCCCC4)c3)nc12 | 700 s |
| CCOC(=O)C(C)Sc1ccc(NC(=O)c2ccco2)nn1 (centres undefined) | 759 s |
| COCc1nnc(C(=O)Nc2cccc(C(=O)NCCc3c[nH]c4ccc(Cl)cc34)c2)s1 | 896 s |
| CC(=O)Nc1ccc(N2C(=O)c3cccc4c([N+](=O)[O-])ccc(c34)C2=O)cc1 | 714 s |
| COC(=O)c1c(NCC(C)C)c2cccc(Cl)c2[nH]c1=O | 792 s |
| Cc1nc2cc(N3CCC(C(=O)O)CC3)cnc2nc1C | 611 s |
| O=C(NCc1cccs1)C1CCN(S(=O)(=O)c2cc(-c3noc(C4CCC4)n3)cs2)CC1 | 1000 s |
| O=C(CC1CCCCC1)N1CCC(F)(C(=O)N2CCCC2)CC1 | 806 s |
| CCc1ccccc1N1C(=O)CN(S(C)(=O)=O)CC1(C)C(=O)NCc1ccc(Cl)cc1 (centres undefined) | 893 s |
| CC1(C(=O)NCc2ccccc2)CCCN(C(=O)NCCc2ccccc2)C1 (centres undefined) | 840 s |
| CC(C)(Oc1ccc(Cl)cc1)C(=O)NCC1CCN(C(=O)Nc2ccc(F)cc2)CC1 | 874 s |
| COCCCN1C(=O)c2cc(-c3ccc(OC)cc3)nn2CC1(C)C(=O)NCc1ccccc1 (centres undefined) | 826 s |
| C=CCOC(=O)COc1ccc2c(=O)c(-c3ccc(Cl)cc3)coc2c1 | 1020 s |
| Cc1ccc(-c2nnc(Cc3nc(-c4ccc5c(c4)OCO5)no3)o2)cc1F | 1020 s |
| O=C(NCC1CCCCC1)c1ccc(-c2nc3cccnc3n2C2CCCCC2)cc1 | 1130 s |
